Laboratory results: ChEMBL document CHEMBL1156336, “Synthesis, X-ray crystal structure study and antitumoral evaluations of 5,6-disubstituted pyrimidine derivatives” (Bioorg Med Chem, 2010)
pIC50: −log10 of the molar value.

Key:
SW-620 [1] = experiment: Antitumor activity against human SW620 cells after 72 hrs by MTT assay; conditions: SW-620, 72 h
MOLT-4 = experiment: Antitumor activity against human MOLT4 cells after 72 hrs by MTT assay; conditions: MOLT-4, 72 h
MCF7 = experiment: Antitumor activity against human MCF7 cells after 72 hrs by MTT assay; conditions: MCF7, 72 h
NCI-H460 = experiment: Antitumor activity against human H460 cells after 72 hrs by MTT assay; conditions: NCI-H460, 72 h
HCT-116 = experiment: Antitumor activity against human HCT116 cells after 72 hrs by MTT assay; conditions: HCT-116, 72 h
SW-620 [2] = experiment: Selectivity ratio IC50 of 5-fluorouracil to compound for human SW620 cells; format: functional

| SMILES | pIC50 (SW-620 [1]) | pIC50 (MOLT-4) | pIC50 (MCF7) | pIC50 (NCI-H460) | pIC50 (HCT-116) | Ratio IC50 (SW-620 [2]) |
| --- | --- | --- | --- | --- | --- | --- |
| Cc1[nH]c(=O)[nH]c(=O)c1CCO | < 4.00 | < 4.00 | < 4.00 | < 4.00 | < 4.00 | – |
| CC(=O)OCCc1c(C)nc(Cl)nc1Cl | < 4.00 | < 4.00 | < 4.00 | < 4.00 | < 4.00 | – |
| COc1nc(C)c(CCO)c(OC)n1 | < 4.00 | < 4.00 | < 4.00 | < 4.00 | < 4.00 | – |
| CC(=O)OCCc1c(C)[nH]c(=O)[nH]c1=O | < 4.00 | < 4.00 | < 4.00 | < 4.00 | < 4.00 | – |
| COc1nc(C)c2c(n1)OCC2 | < 4.00 | – | < 4.00 | < 4.00 | < 4.00 | – |
| COc1nc(C)c(CCOC(C)=O)c(OC)n1 | 4.36 | – | 4.19 | 4.33 | 4.40 | – |
| COc1nc(Cl)nc(C)c1CCOC(C)=O | < 4.00 | < 4.00 | < 4.00 | < 4.00 | < 4.00 | – |
| COc1nc(Cl)nc(C)c1CCO | < 4.00 | – | < 4.00 | < 4.00 | < 4.00 | – |
| COc1ccc(C(OCCc2c(C)nc(OC)nc2OC)(c2ccccc2)c2ccccc2)cc1 | 4.70 | 5.30 | 5.22 | 4.30 | 5.40 | – |
| COc1nc(C)c(CCF)c(OC)n1 | < 4.00 | – | < 4.00 | < 4.00 | < 4.00 | – |
| COc1nc(Cl)nc(C)c1CCF | < 4.00 | – | < 4.00 | < 4.00 | < 4.00 | – |
| Cc1nc(Cl)nc(Cl)c1CCCl | 6.40 | 5.30 | 5.10 | 5.52 | 5.70 | 20 |
| COc1nc(C)c(CCCl)c(OC)n1 | < 4.00 | < 4.00 | < 4.00 | < 4.00 | < 4.00 | – |
| COc1nc(CC(O)COCc2ccccc2)c(CCCl)c(OC)n1 (configuration not stated) | 4.70 | 4.72 | 4.59 | 4.12 | 4.80 | – |
| O=c1[nH]c(CC(O)COCc2ccccc2)c(CCCl)c(=O)[nH]1 (configuration not stated) | < 4.00 | < 4.00 | < 4.00 | < 4.00 | < 4.00 | – |
| Cc1[nH]c(=O)[nH]c(=O)c1CCCl | < 4.00 | < 4.00 | < 4.00 | < 4.00 | < 4.00 | – |
| Nc1ccn([C@@H]2O[C@H](CO)[C@@H](O)[C@@H]2O)c(=O)n1 [CYTARABINE] | 4.52 | 6.00 | ≤ 4.00 | 7.00 | 7.00 | – |
| O=c1[nH]cc(F)c(=O)[nH]1 [FLUOROURACIL] | – | 7.52 | – | – | – | – |
